# Patent US11350582B2, “Plant varieties by application of endocides” (Stephen F. Austin State University, priority 2015, dated 2022)
# Key:
# Salvinia molesta = assay: Greenhouse spray test on giant salvinia, living biomass; format: in vivo; conditions: for type of new growth / decrease of living biomass weight compared to the water control: 1% concentration; for type of new growth: compound alone; for decrease of living biomass weight compared to the water control: nine days after the treatment; for Living Biomass (mean ± s.d.): 10 mL spray on three type III plants per container, day nine
# Method: General Experimental Procedure: Observations of giant salvinia growth in a greenhouse were performed under 28 different treatment conditions and control conditions with NANOPURE™ water or 0.5% DYNE-AMIC® (methyl esters of C16-C18 fatty acids, polyalkyleneoxide modified polydimethylsiloxane, and alkylphenol ethoxylate 99%, (Helena, Collierville, Tenn., United States)) (v:v).
# Materials—4-hydroxybenzoic acid (>95%, HPLC analysis) and 3,4-dihydroxybenzoic acid (>95%) were isolated from S. molesta matter using the method as described in (Li, Wang et al. 2013). Ethylparaben (>99%) was purchased from a commercial source. Each of 4-hydroxybenzoic acid, 3,4-dihydroxybenzoic acid, and ethylparaben were prepared as 50 mL experimental solutions with NANOPURE™ water at the concentration of 0.5, 1.0, 1.5, and 2.0%, respectively. 0.5, 1.0, 1.5, and 2.0% 4-hydroxybenzoic acid, 3,4-dihydroxybenzoic acid, and ethylparaben with 0.5% surfactant DYNE-AMIC® was also prepared as 50 mL experimental solutions with NANOPURE™ water. Mixtures of 4-hydroxybenzoic acid with 3,4-dihydroxybenzoic acid (2:1, w:w) were prepared as 50 mL experimental solutions with NANOPURE™ water at the total concentration of 0.5, 1.0, and 1.5%, respectively. 3,4-dihydroxybenzoic acid was mixed with ethylparaben (2:1, w:w) and prepared as 50 mL experimental solution with NANOPURE™ water at the total concentration of 0.5, 1.0, and 1.5%, respectively.
# Bioassay—For each treatment, a total of nine healthy and untreated living plants of S. molesta (type III, the biomass of three plants weighs approximately 10 g) were cultured in tap water in three plastic containers severing as three replications (14×15 cm, 0.68 L) with three plants each in a greenhouse (30° C. during the day time and 20° C. at night). The three plants in each of the three containers per treatment were sprayed with 10 mL NANOPURE™ water, 0.5% DYNE-AMIC®, or the experimental solution. Plant growth and survival status were documented and photographed in each treatment on day nine after the treatment. Pairwise comparisons for all treatments (including Control) in living biomass were made using Tukey test at alpha=0.05, which was done using SAS (SAS 9.4).
# Azolla caroliniana = assay: Greenhouse spray test on Carolina mosquito fern; format: in vivo; conditions: 0.5% concentration; 10 mL spray; fifth day
# Method: 4-Hydroxybenzoic and 3,4-dihydroxybenzoic acids were also tested against Carolina mosquito fern (Azolla caroliniana Willd.) (family Azollaceae). Six containers (14×15 cm, 0.68 L) with full cover of A. caroliniana were included in the tests: two without any treatments as controls, two were sprayed with 10 mL 0.5% 4-hydroxybenzoic acid each, and the others were sprayed with 10 mL 0.5% 3,4-dihydroxybenzoic acid each. Plant growth and survival status were documented and photographed in each treatment on the fifth day after the treatment.
# S. molesta [1] = assay: Field test in an isolated pond, foliar spray with DAWN dish soap (Example 16); format: in vivo, Salvinia molesta; conditions: 0.5% with 0.25% soap; for small S. molesta plants dead: 48 h after the first treatment; for new growths induced (small plants): after first treatment; for fate of newly emerged type I plants: after the second treatments; for type III S. molesta plants on the top layer of the dense mats killed or severely injured: within 48 hrs of the first treatment
# Method: General Experimental Procedure: Field experiments were conducted in an isolated pond in east Texas, United States. The pond was infested with type III S. molesta plants that formed dense mats along the edge and type I and II plants floating on the water surface. 4-hydroxybenzoic and 3,4-dihydroxybenzoic acids were purchased from a commercial source (99.9%, HPLC analysis). 500 m^2 of S. molesta was treated with 50 L 0.5% 4-hydroxybenzoic acid mixed with 0.25% DAWN® dish soap and 500 m^2 of S. molesta was treated with 50 L 0.5% 3,4-dihydroxybenzoic acid mixed with 0.25% DAWN® dish soap by Solo 433 motorized backpack sprayer. Plant growth and survival status were documented through photographs and the living biomass was sampled 48 hrs after each treatment. The experimental species for selectivity tests were mainly common species associate with S. molesta or species growing in nearby habitats. The species included one fern species, Carolina mosquito fern (A. caroliniana), and 11 herbaceous invasive aquatic species of angiosperms (flowering plants), namely, water hyacinth (Eichharnia crassipes (Mart.) Solms) of the family Pontederiaceae, least duckweed (Lemna minuta) and Brazilian watermeal (Wolffia brasillensis Weddell) of the family Araceae, and hydrilla (Hydrilla verticillata (L.f.) Royle) of the family Hydrocharitaceae, alligator weed (Alternanthera philoxeroides Griseb.) of the family Amaranthaceae, knotweed (Polygonum sp.) and redvine (Brunnichia ovata Walter) of the family Polygonaceae, water primrose (Ludwigia sp.) of the family Onagraceae, cattail (Typha latifolia L.) of the family Typhaceae, proliferating bulrush (Isolepis prolifera (Rottb.) R. Br.) of the family Cyperaceae, and coontail (Ceratophyllum demersum L.) of the family Ceratophyllaceae and four woody plants, namely, baldcypress (Taxodium distichum (L.) Rich.) of the family Cupressaceae, loblolly pine (Pinus taeda L.) of the family Pinaceae, Chinese tallow (T. sebifera), and buttonbush (Cephalanthus occidentalis L.) of the family Rubiaceae. At least 30 plants for each of 12 herbaceous species and three seedlings of each of the four woody species were sprayed during the treatment of S. molesta.
# [2] = test system: common species associate with S. molesta or species growing in nearby habitats; assay: Field selectivity test on associated plant species (Example 16); format: in vivo; conditions: 0.5% with 0.25% soap; after two foliar applications
# Method: General Experimental Procedure: Field experiments were conducted in an isolated pond in east Texas, United States. The pond was infested with type III S. molesta plants that formed dense mats along the edge and type I and II plants floating on the water surface. 4-hydroxybenzoic and 3,4-dihydroxybenzoic acids were purchased from a commercial source (99.9%, HPLC analysis). 500 m^2 of S. molesta was treated with 50 L 0.5% 4-hydroxybenzoic acid mixed with 0.25% DAWN® dish soap and 500 m^2 of S. molesta was treated with 50 L 0.5% 3,4-dihydroxybenzoic acid mixed with 0.25% DAWN® dish soap by Solo 433 motorized backpack sprayer. Plant growth and survival status were documented through photographs and the living biomass was sampled 48 hrs after each treatment. The experimental species for selectivity tests were mainly common species associate with S. molesta or species growing in nearby habitats. […]
# S. molesta [3] = assay: Mutation induction in giant salvinia by spray, greenhouse (Example 12); format: in vivo, Salvinia molesta
# Method: General Experimental Procedure: 4-hydroxybenzoic acid (>95%, HPLC analysis) and 3,4-dihydroxybenzoic acid (>95%) were isolated from S. molesta matter by using the method as described in Li, Wang et al. 2013. 4-Hydroxybenzoic and 3,4-dihydroxybenzoic acids were prepared as 50 mL experimental solution with NANOPURE™ water at eight concentrations, 0.015, 0.031, 0.063, 0.125, 0.25, 0.5, 1, and 2%, respectively.
# In each of 17 containers (14×15 cm, 0.68 L each), nine healthy and untreated living plants of S. molesta were cultured in tap water in a greenhouse (30° C. during the day time and 20° C. at night). The nine plants included three type I plants (approximately 1 g in fresh weight per plant), three type II plants (approximately 2 g per plant), and three type III plants (approximately 4 g per plant). The plants in each container were sprayed with 10 mL NANOPURE™ water or an experimental compound at various concentrations. Plant growth, morphological variation, and survival status were documented and photographed in each treatment for six weeks after the treatment. Then any new developed plants in each container were transferred into a container with new water for 10 weeks of culture observations.
# dihuang = conditions: in vivo; cited from earlier work
# [4] = 2% solution, 10 mL spray on nine plants (types I, II, III), six weeks
smiles,measurement,setting,value
"O=C(O)c1ccc(O)c(O)c1 [3,4-dihydroxybenzoic acid]",type of new growth,Salvinia molesta,type I only
same,decrease of living biomass weight compared to the water control,Salvinia molesta,76.5%
same,Living Biomass (mean ± s.d.),Salvinia molesta; total concentration 0.5%,17.1 g
same,Living Biomass (mean ± s.d.),Salvinia molesta; total concentration 1.0%,9.2 g
same,Living Biomass (mean ± s.d.),Salvinia molesta; total concentration 1.5%,14.3 g
same,Living Biomass (mean ± s.d.),Salvinia molesta; total concentration 2.0%,5.8 g
same,A. caroliniana eliminated,Azolla caroliniana,100%
same,small S. molesta plants dead,S. molesta [1],> 80%
same,new growths induced (small plants),S. molesta [1],type I only
same,fate of newly emerged type I plants,S. molesta [1],all newly emerged type I plants were killed
same,type III S. molesta plants on the top layer of the dense mats killed or severely injured,S. molesta [1],100%
same,damage to other species tested for selectivity,[2],none of the other species tested for selectivity except A. caroliniana were severely damaged or killed
same,mutation induction in S. molesta,"S. molesta [3]; 0.25, 0.5, and 1%",induced small leaf mutations
same,induced new growth type,"S. molesta [3]; 0.5% or 1%, six weeks of observation",the new plants remained as type I
same,survival and damage of S. molesta plants,S. molesta [3]; [4],killed all of the plants and no new growth was observed
same,effect on growth of dihuang,dihuang,inhibit some growth
O=C(O)c1ccc(O)cc1 [4-Hydroxybenzoic acid],type of new growth,Salvinia molesta,type I only
same,decrease of living biomass weight compared to the water control,Salvinia molesta,85.5%
same,S. molesta plants eliminated,Salvinia molesta; 2% concentration,100%
same,Living Biomass (mean ± s.d.),Salvinia molesta; total concentration 0.5%,20.1 g
same,Living Biomass (mean ± s.d.),Salvinia molesta; total concentration 1.0%,4.3 g
same,Living Biomass (mean ± s.d.),Salvinia molesta; total concentration 1.5%,2.3 g
same,Living Biomass (mean ± s.d.),Salvinia molesta; total concentration 2.0%,0 g
same,A. caroliniana eliminated,Azolla caroliniana,100%
same,small S. molesta plants dead,S. molesta [1],> 90%
same,new growths induced (small plants),S. molesta [1],type I only
same,fate of newly emerged type I plants,S. molesta [1],all newly emerged type I plants were killed
same,type III S. molesta plants on the top layer of the dense mats killed or severely injured,S. molesta [1],100%
same,damage to other species tested for selectivity,[2],none of the other species tested for selectivity except A. caroliniana were severely damaged or killed
same,survival and damage of S. molesta plants,"S. molesta [3]; 0.125% or lower concentrations, six weeks",no significant damage
same,survival and damage of S. molesta plants,"S. molesta [3]; 0.25% solution, 10 mL spray on nine plants, first week",killed all floating leaves of the small plants (type I and II) and partially injured floating leaves of the type III plants
same,induced new growth type,"S. molesta [3]; 0.25% solution, six weeks",Seven plants developed cupped floating leaves (type II)
same,survival and damage of S. molesta plants,"S. molesta [3]; 0.5% solution, 10 mL spray on nine plants",killed almost all floating leaves of the nine treated plant within a week
same,induced new growth type,"S. molesta [3]; 0.5% solution, six weeks",all other newly emerged plants from axillary buds remained as type I
same,survival and damage of S. molesta plants,"S. molesta [3]; 1% solution, 10 mL spray on nine plants (types I, II, III)",all six type I or II plants were dead without new growth within two days of the treatment
same,induced new growth type,"S. molesta [3]; 1% solution, end of second week",three small plants (type I) emerged from the axillary buds of the type III plants
same,survival and damage of S. molesta plants,S. molesta [3]; [4],died and showed no new growth
same,effect on growth of dihuang,dihuang,inhibit some growth
